# Earlier results as cited in paper PMC10177510, “A Multicenter, Open-Label, Phase I/II Study of FN-1501 in Patients with Advanced Solid Tumors” (Cancers, 2023).
# System: MV-4-11
# Details: cited from earlier work
smiles,measurement,value
"CCc1nc(C(N)=O)c(Nc2ccc(N3CCC(N4CCN(C)CC4)CC3)c(OC)c2)nc1NC1CCOCC1 [gilteritinib, reference compound]",IC50,0.5 ng/mL
